According to patent US20080032933A1, “Type V Phosphodiesterase Inhibitors and Natriuretic Polypeptides” (MAYO FOUNDATION FOR MEDICAL EDUCATION AND RESEARCH, priority 2005, published 2008):
Like-named read-outs stand apart in the source and are kept apart here. No end group written: not given here.

Assays:
[1] = system: male mongrel dogs with overt chronic heart failure produced by rapid ventricular pacing; assay: LV remodeling (echocardiography FS, CO, LV mass, plasma BNP) after 10 days of PDE V inhibitor in pacing-induced CHF; assay type: in vivo, dog
Procedure: (§1) A model of pacing-induced overt chronic heart failure was used (Chen et al., Circulation, 100:2443-2448 (1999)). Briefly, all dogs underwent implantation of a programmable cardiac pacemaker (Medtronic, Minneapolis, Minn.). Under pentobarbital sodium anesthesia (30 mg/kg, intravenous) and artificial ventilation (Harvard respirator, Harvard Apparatus, Millis, Mass.) with 5 L/min supplemental oxygen, a left lateral thoracotomy and pericardiotomy were performed. With the heart exposed, a screw-in epicardial pacemaker lead was implanted into the right ventricle. The pacemaker generator was implanted subcutaneously into the left chest wall and connected to the pacemaker lead. Dogs received pre- and post-operative prophylactic antibiotic treatment with 225 mg clindamycin subcutaneously and 400,000 U procaine penicillin G plus 500 mg dihydrostreptomycin intramuscularly (Combiotic, Pfizer, Inc., New York, N.Y.). Post-operative prophylactic antibiotic was continued through the first two post-operative days. Dogs were fed a fixed sodium diet (58 mEq/day, Hill's ID) and allowed water ad lib. All dogs were walked daily. Appetite, activity, body temperature, and condition of surgical skin sites were documented. Following a 14-day post-operative recovery period, the pacemaker was turned on at 240 bpm.
Echocardiography was carried out at baseline before the pacemaker was turned on and at day 10 of pacing to determine LV fractional shortening (FS). Echocardiographic images were obtained in the conscious dog standing in a minimally restraining sling. Simultaneous electrocardiography was obtained. The optimal images were generally obtained from the right lateral chest wall just above the sternum at the equivalent of the anterior axillary line. Images analogous to the para-sternal long axis and para-sternal short axis views (human echocardiography) were consistently obtained at the base, mid-ventricular, and para-apical levels. LV two-dimensional (2D) and M-mode images were obtained with a 2.5-MHz ultrasonic transducer (General Electric Systems Five). LV M-mode tracings were obtained under 2D guidance using the 2D short-axis views between the two papillary muscles just distal to the mitral valve leaflet tips. All images were obtained in sinus rhythm. Care was taken to ensure that the M-mode cursor transects the LV in the midline, that the LV image is “on axis” (LV is round, not oval indicating an image between short and long axes), and that the cursor is perpendicular to the LV wall detecting maximal LV thickening of both the septal and posterior walls. End-diastole was defined as the maximal LV diastolic diameter at the peak of the R wave on the EKG, and end-systole was defined as the peak of the LV posterior wall motion. M-mode measurements were made in accordance with the American Society of Echocardiography leading-edge convention using the steepest continuous endocardial echoes. Measurements included LV end-diastolic (LVDd), and end-systolic dimensions (LVDs) were averaged for average dimension. FS (%)=[(LVDd−LVSd)/LVDd]*100.
(§2) Glomerular filtration rate (GFR) was measured by inulin clearance.
At the end of the acute experiment, the heart was harvested, and the LV was carefully dissected out and weighed to determine LV mass. The LV mass was divided by the body weight to give the LV mass/Kg body weight.
(§3) Results were expressed as mean ±SEM. […] GraphPad Prism software was used for the above calculation. Statistical significance was accepted as p<0.05.

[2] = system: male mongrel dogs with overt chronic heart failure produced by rapid ventricular pacing; assay: Cardiorenal and neurohumoral profile on day 11 of pacing-induced CHF; assay type: in vivo, dog
Procedure: as §1, with “bpm. […]” for “bpm.”
as §2, §3

[3] = system: male mongrel dogs with overt chronic heart failure produced by rapid ventricular pacing; assay: Humoral, hemodynamic and renal response to acute SQ BNP on day 11 of pacing-induced CHF
Procedure: (§4) Studies were conducted in 2 groups of male mongrel dogs (18-23 kg) with overt chronic heart failure produced by rapid ventricular pacing at 240 beats per minute (bpm) for ten days on a fixed sodium diet. Group 1 (n=6) received Sildenafil (50 mg orally three times a day) during the 10 days of pacing and one dose an hour before the subcutaneous (SQ) administration of BNP on day 11. Group 2 (n=6) received no PDE V inhibitor, but did receive SQ BNP alone on day 11 of CHF.
(§5) Acute SQ BNP administration was performed as follows. On day 11 of rapid ventricular pacing at 240 bpm, an experiment was carried out to determine the cardiorenal and humoral function in both groups and also the response to acute SQ BNP administration (5 μg/kg). […] On the morning of the experiment, only group 1 received a final dose of Sildenafil 50 mg one hour before the dogs were anesthetized with sodium pentobarbital (15 mg/kg, i.v.), intubated, and mechanically ventilated with supplemental oxygen (Harvard respirator, Amersham, Millis, Mass.) at 20 cycles per minute. A flow-directed balloon-tipped thermodilution catheter (Ohmeda, Criticath, Madison, Wis.) was advanced into the pulmonary artery via the external jugular vein for cardiac hemodynamic measurement. The femoral artery was cannulated for blood pressure monitoring and blood sampling. The femoral vein was also cannulated for inulin and normal saline infusion. The left kidney was exposed via a flank incision, and the ureter was cannulated for urine collection. A calibrated electromagnetic flow probe was placed around the renal artery to measure renal blood flow (RBF).
(§6) The experiment began after a 60-minute equilibration period, with a 30-minute baseline urinary clearance. After the 30-minute baseline urinary clearance, SQ canine BNP 5 μg/kg was administered in the right hind leg. Following a 15-minute lead-in period, a 60-minute urinary clearance period was performed. Cardiovascular parameters measured during the acute experiment included mean arterial blood pressure (MAP), right atrial pressure (RAP), mean pulmonary arterial pressure (PAP), cardiac output (CO), and pulmonary capillary wedge pressure (PCWP). CO was determined by thermodilution in triplicate and averaged (Cardiac Output model 9510-A computer, American Edwards Laboratories, Irvine, Calif.). MAP was assessed via direct measurement from the femoral arterial catheter. Systemic vascular resistance (SVR) was calculated as [SVR=(MAP−RAP)/CO]. Inulin was administered intravenously at the start of the equilibration period as a calculated bolus, followed by a 1 mL/min continuous infusion to achieve plasma levels of 40-60 mg/dL. Glomerular filtration rate (GFR) was measured by inulin clearance.
(§7) Cardiovascular hemodynamics were measured at the start of each urinary clearance. Arterial blood was collected in heparin and EDTA tubes and immediately placed on ice midway through each clearance. After centrifugation at 2,500 rpm at 4° C., plasma was decanted and stored at −20° C. until analysis. Urine was collected on ice during the entire period of each clearance for assessment of urine volume, electrolytes, and inulin. Urine collected for cGMP analysis was heated to more than 90° C. before storage.
(§8) Plasma samples for BNP renin and angiotensin II were measured by radioimmunoassay (RIA) using methods described elsewhere (Chen et al., Circulation, 96:I-524 (1997)). Plasma and urinary samples for cGMP were measured by RIA using methods described elsewhere (Steiner et al., J. Biol. Chem., 247:1106-1113 (1972)). Urinary and plasma inulin concentrations were measured by the anthrone method (Davidson and Sachner, J. Lab. Clin. Med., 62:351-356 (1963)).

[4] = system: male mongrel dogs with overt chronic heart failure produced by rapid ventricular pacing; conditions: dog, in vivo
Procedure: as §4, §5, §6, §7, §8

[5] = 10 days of treatment, compared to the untreated group (FIG. 1)
[6] = chronic administration in experimental overt CHF
[7] = Sildenafil 50 mg orally three times a day for 10 days of pacing, mean ± SE
[8] = Sildenafil 50 mg orally three times a day for 10 days, P < 0.05 versus Untreated
[9] = PDE V inhibitor-treated group, Baseline (before SQ BNP)
[10] = PDE V inhibitor-treated group, SQ BNP (FIG. 2)
[11] = PDE V inhibitor-treated group, after SQ BNP
[12] = PDE V inhibitor-treated group, after SQ canine BNP 5 μg/kg (combination)
[13] = Untreated CHF group (no PDE V inhibitor), after SQ canine BNP 5 μg/kg alone
[14] = untreated group (no PDE V inhibitor), SQ BNP alone (FIG. 2)

CCCc1nn(C)c2c(=O)[nH]c(-c3cc(S(=O)(=O)N4CCN(C)CC4)ccc3OCC)nc12 [PDE V inhibitor, Sildenafil]
CO (cardiac output) [1, 5]: improvement | LV FS (fractional shortening) [1, 5]: improvement | LV mass [1, 5]: reduction in LV mass | plasma BNP levels [1, 5]: strong trend for plasma BNP levels to be lower | LV remodeling [1, 6]: improved LV remodeling | MAP [2, 7]: 110 ± 4 mmHg | PAP [2, 7]: 27 ± 1 mmHg | PCWP [2, 7]: 23 ± 1 mmHg | RAP [2, 7]: 11 ± 1 mmHg | RBF [2, 7]: 160 ± 21 mL/min | UNaV [2, 7]: 2 ± 1 μEq/min | UV [2, 7]: 0.12 ± 0.01 mL/min | Plasma cGMP [2, 8]: 43 ± 2 pmol/mL | Urinary cGMP [2, 8]: 4219 ± 900 pmol/min | GFR ([2]; Sildenafil 50 mg orally three times a day for 10 days, inulin clearance): 30 ± 5 mL/min | MAP [3, 9]: 110 ± 4 | PAP [3, 9]: 27 ± 1 | PCWP [3, 9]: 23 ± 1 | Plasma Ang II [3, 9]: 124 ± 2 | Plasma Renin [3, 9]: 16 ± 2 | Plasma cGMP [3, 9]: 43 ± 2 pmol/mL | RAP [3, 9]: 11 ± 1 | Urinary cGMP Excretion [3, 9]: 4219 ± 900 fmol/min | GFR change with SQ BNP [3, 10]: increase in GFR | PTFNa change with SQ BNP [3, 10]: decreased significantly | UNaV change with SQ BNP [3, 10]: increased | CO with SQ BNP [3, 11]: unchanged | plasma BNP levels with SQ BNP [3, 11]: increased similarly | MAP [3, 12]: 103 ± 7 | PAP [3, 12]: 23 ± 1 | PCWP [3, 12]: 18 ± 1 | Plasma Ang II [3, 12]: 37 ± 2 | Plasma Renin [3, 12]: 9 ± 2 | Plasma cGMP [3, 12]: 46 ± 3 pmol/mL | RAP [3, 12]: 8 ± 1 | Urinary cGMP Excretion [3, 12]: 8600 ± 1600 fmol/min | cardiovascular hemodynamic effects ([3]; chronic Sildenafil with acute SQ BNP in experimental overt CHF): without adverse cardiovascular hemodynamic effects | renal response to acute SQ BNP [3, 6]: enhanced

BNP: canine brain natriuretic peptide administered subcutaneously at 5 μg/kg (SPKMMHKSGCFGRRLDRIGSLSGLGCNVLRKY; ends and bridges not checked; cysteine pairing not given here; UniProt P16859 109-140, looked up)
plasma BNP levels with SQ BNP [4]: increased similarly | MAP [3, 13]: 110 ± 5 | PAP [3, 13]: 25 ± 1 | PCWP [3, 13]: 20 ± 1 | Plasma Ang II [3, 13]: 73 ± 31 | Plasma Renin [3, 13]: 20 ± 5 | Plasma cGMP [3, 13]: 25 ± 3 pmol/mL | RAP [3, 13]: 6 ± 1 | Urinary cGMP Excretion [3, 13]: 3580 ± 351 fmol/min | GFR change with SQ BNP [3, 14]: not observed | PTFNa change with SQ BNP [3, 14]: only trended to change | UNaV change with SQ BNP [3, 14]: only trended to change | CO with SQ BNP ([3]; untreated group, after SQ BNP alone): unchanged
